Where two headings read alike, the source gives them in different places. Ends that are not written are not given here.
Experiments:
Escherichia coli = test system: Escherichia coli
Procedure, shortened: (§1)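 Broth microdilution per CLSI M07-A9 in cation-supplemented Mueller-Hinton broth (Ca++ 20-25 mg/L, Mg++ 10-12.5 mg/L). Peptides tested in two-fold dilutions from 0.5 to 512 μg/mL. Inoculum was a 1/100 dilution of a 0.5 McFarland suspension.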

Klebsiella pneumoniae = test system: Klebsiella pneumoniae
Procedure, shortened: as §1

Staphylococcus aureus = assay: MIC by broth microdilution; type: cell-based
Procedure, shortened: as §1

Pseudomonas aeruginosa = assay: MIC by broth microdilution; type: cell-based
Procedure, shortened: as §1

human erythrocytes = assay: Erythrocyte hemolysis assay (cytotoxicity); type: cell-based; conditions: peptide 128 ug/ml
Method: Subsequently, the capacity of the peptides of the invention for lysing human erythrocytes was evaluated, as a measure of their cytotoxicity (Table 2). The assays were carried out according to the Examples and are expressed as a percentage of total lysis obtained with either water or the surfactant Tween 20. In this assays, the lower hemolysis percentage, the lower expected cytotoxic activity.
Evaluation of cytotoxic activity was performed by means of an erythrocyte hemolysis assay (according to Pure Appl. Chem., Vol. 79, No. 4, pp. 717-728, 2007). In brief, from a volume of heparinized human whole blood, 3 times that volume of PBS is added and centrifuged 10 minutes at 1500 rpm, repeating the washing two more times. 10% blood solutions in PBS were prepared with that pellet. Subsequently, each group was added the corresponding peptide at the indicated concentration and incubated at 37° C. for 30 minutes. […]

S. cohnii = type: cell-based
Procedure, shortened: (§2)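 Agar dilution per CLSI M2 with non-amidated peptides diluted two-fold (1:2, 1:4, 1:8) into agar at 1:10. Inoculum 10^4 CFU/spot from 0.5 McFarland; plates incubated inverted at 35 °C for 16-20 h. MIC = lowest dilution completely inhibiting growth (>80% reduction vs control), ignoring single colonies or inoculum film.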

S. aureus = type: cell-based; conditions: non-amidated peptides
Procedure, shortened: as §2

K. pneumoniae = type: cell-based; conditions: non-amidated peptides; K. pneumoniae M13540, KPC
Procedure, shortened: as §2

A. baumanii = test system: A. baumanii
Method: (§3) Subsequently, an analysis of a panel of clinical isolates including strains with different resistance mechanisms against conventional antibiotics was carried out, all of which are of clinical relevance. […] In Table 3 the results for a panel of Gram negative bacteria are shown, and in Table 4 for a panel of […] bacteria. In these tables the detected gene/s responsible for the resistance against antibiotics for each strain, are included.
(§4) Antimicrobial activity was analyzed by means of the determination of the MIC (minimum inhibitory concentration) by the microdilution technique. The technique was carried out in the standard fashion according to (CLSI M07-A9 Vol. 32 No 2. January 2012). The peptide concentration range used was from 0.5 μg/mL to 512 μg/mL in two-fold serial dilutions. The used medium was MH Difco broth supplemented with cations, at a final concentration of Ca^++20-25 mg/L and Mg^++10-12.5 mg/L. The working inoculum used corresponds to a 1/100 dilution of a bacterial suspension equivalent to 0.5 in the Mc Farland scale.

S. saprophyticus = test system: S. saprophyticus
Method: as §3, §4

E. faecalis = test system: E. faecalis
Method: as §3, §4

S. haemolyticus = test system: S. haemolyticus
Method: as §3, §4

E. raffinosus = E. raffinosus M6187, resistance gene vanA
Method: as §3, §4

E. gallinarum = test system: E. gallinarum
Method: as §3, §4

A. junii = A. junii M9013, resistance gene oxa-51 + imp
Method: as §3, §4

S. hominis = test system: S. hominis
Method: as §3, §4

ILRWPWWPWRRK-NH2 [Omiganan, ILRWPWWPWRRK, reference compound]
MIC (Escherichia coli; E. coli ABC11, resistance gene ctx-m-2): 64 µg/mL
MIC (Escherichia coli; E. coli Cos15, resistance gene per + tem): 64 µg/mL
MIC (Escherichia coli; E. coli LCA1, resistance gene ctx-m-2 + tem-1): 64 µg/mL
MIC (Escherichia coli; E. coli M5306, resistance gene ctx-m-2 + tem-1 + per-2): 64 µg/mL
MIC (Escherichia coli; E. coli M7859, resistance gene cit): 64 µg/mL
MIC (Escherichia coli; E. coli M9209, resistance gene kpc): 64 µg/mL
MIC (Escherichia coli; E. coli NEU23, resistance gene oxa-GIII + tem): 32 µg/mL
MIC (Klebsiella pneumoniae; K. Pneumoniae M9885, resistance gene kpc): 256 µg/mL
MIC (Klebsiella pneumoniae; K. pneumoniae M9170, resistance gene oxa-GIII): 128 µg/mL
MIC (Klebsiella pneumoniae; K. pneumoniae M9491, resistance gene mox): 128 µg/mL
MIC (Klebsiella pneumoniae; K. pneumoniae M13540, resistance gene kpc): 256 µg/mL
MIC (Staphylococcus aureus; S. aureus 28, resistance gene ermA): 32 µg/mL
MIC (Staphylococcus aureus; S. aureus 33, resistance gene msrA): 32 µg/mL
MIC (Staphylococcus aureus; S. aureus 204, resistance gene ermA): 64 µg/mL
MIC (Staphylococcus aureus; S. aureus 239, resistance gene ermC): 32 µg/mL
MIC (Staphylococcus aureus; S. aureus M2832, resistance gene mecA): 64 µg/mL
MIC (Staphylococcus aureus; S. aureus M4046, resistance gene mecA): 32 µg/mL
MIC (Staphylococcus aureus; S. aureus M6276, resistance gene ermA + lnuA): 32 µg/mL
MIC (Staphylococcus aureus; S. aureus M6784, resistance gene mecA): 32 µg/mL
MIC (Staphylococcus aureus; S. aureus M6820, resistance gene mecA): 128 µg/mL
MIC (Pseudomonas aeruginosa; P. aeruginosa M5109, resistance gene vim): 256 µg/mL
MIC (Pseudomonas aeruginosa; P. aeruginosa M7723, resistance gene kpc): 256 µg/mL
MIC (Pseudomonas aeruginosa; P. aeruginosa M7907, resistance gene per): 128 µg/mL
MIC (Pseudomonas aeruginosa; P. aeruginosa M13513, resistance gene kpc): 256 µg/mL
Hemolysis % (1% Tween20) (human erythrocytes; percentage of total lysis obtained with 1% Tween20): 11.6%
Hemolysis % (water) (human erythrocytes; percentage of total lysis obtained with water): 10%
OD 540 nm (human erythrocytes; supernatant of human erythrocytes, 37° C., 30 minutes): 0.171
MIC in agar dilution (S. cohnii): 16 µg/mL
MIC in agar dilution (S. aureus; S. aureus ATCC29213, MSSA): >128 µg/mL
MIC in agar dilution (S. aureus; S. aureus M6794, MRSA): >128 µg/mL
MIC in agar dilution (K. pneumoniae): >128 µg/mL
MIC (A. baumanii; A. baumanii FAV-1, resistance gene per + oxa-51 + oxa-58): 64 µg/mL
MIC (A. baumanii; A. baumanii M5179, resistance gene oxa-51): 64 µg/mL
MIC (A. baumanii; A. baumanii M5277, resistance gene per): 32 µg/mL
MIC (A. baumanii; A. baumanii M5282, resistance gene oxa-51): 16 µg/mL
MIC (A. baumanii; A. baumanii M7489, resistance gene oxa-51 + tem): 32 µg/mL
MIC (A. baumanii; A. baumanii M7978, resistance gene imp): 64 µg/mL
MIC (A. baumanii; A. baumanii M9665, resistance gene oxa-51): 64 µg/mL
MIC (A. baumanii; A. baumanii M13523, resistance gene oxa-51): 64 µg/mL
MIC (S. saprophyticus): 8 µg/mL
MIC (E. faecalis): 128 µg/mL
MIC (E. faecalis; E. faecalis ATCC 51299, resistance gene vanB): 256 µg/mL
MIC (E. faecalis; E. faecalis M4449, resistance gene vanA): 128 µg/mL
MIC (E. faecalis; E. faecalis M4899, resistance gene vanB): 256 µg/mL
MIC (E. faecalis; E. faecalis M4992, resistance gene vanA): 128 µg/mL
MIC (E. faecalis; E. faecalis M6383, resistance gene vanA): 128 µg/mL
MIC (E. faecalis; E. faecalis M6534, resistance gene vanB): 256 µg/mL
MIC (E. faecalis; E. faecalis M6983, resistance gene vanA): 128 µg/mL
MIC (S. haemolyticus): 4 µg/mL
MIC (E. raffinosus): 4 µg/mL
MIC (E. gallinarum; E. gallinarum M2685, resistance gene vanC1 + vanA): 16 µg/mL
MIC (E. gallinarum; E. gallinarum M2723, resistance gene vanC1 + vanA): 16 µg/mL
MIC (A. junii): 64 µg/mL
MIC (S. hominis): 4 µg/mL
